In patent publication US20020049223A1, “Quinoline and naphthyridine carboxylic acid antibacterials” (priority 1999, published 2002):

What was measured:
Experiment in all cases: Assay B: in vitro antibacterial activity, broth microdilution MIC (NCCLS)
Assay type in all cases: cell-based
Escherichia coli JUHL = conditions: Table 2, Assay B, cation-adjusted Mueller Hinton broth, 35° C., 16 to 20 hr; code D = Escherichia coli JUHL; unit assumed
Protocol: (§1) Assay B. Determination of Biological Activity In Vitro Assay of Antibacterial Activity
(§2) Representative compounds of the invention were assayed in vitro for antibacterial activity. The susceptibilities of aerobic, nonfastidious species were determined visually by broth microdilution as described by the National Committee for Clinical Laboratory Standards (NCCLS) (National Committee for Clinical Laboratory Standards. 1997. Methods for dilution antimicrobial susceptibility tests for bacteria that grow aerobically. Approved standard M7-A4. National Committee for Clinical Laboratory Standards. Wayne, Pa.). In brief, serial two-fold dilutions of test compounds were made in cation-adjusted Mueller Hinton broth at two-times the final concentration. Inocula were prepared from overnight cultures of test strains. Tests were inoculated with a suspension of bacteria in Mueller Hinton broth to achieve a final density of approximately 5×10^5 CFU/mL. Tests were incubated at 35° C. in ambient air for 16 to 20 hr. Minimum Inhibitory Concentrations (MICs) were determined as the lowest drug concentration completely inhibiting growth. Ciprofloxacin was included as a control. For testing S. pneumoniae, the cation-adjusted Mueller Hinton broth was supplemented with 3% lysed horse blood and the incubation period was extended to 20 to 24 hr. For testing H. influenzae, the cation-adjusted Mueller Hinton broth was supplemented with 5 g/L yeast extract, […] and 15 mg/L NAD and incubation was extended to 20 to 24 hr..

[1] = test system: Haemophilus influenzae DILL AMP R; conditions: Table 2, Assay B, Mueller Hinton broth with yeast extract, hematin and NAD, 20 to 24 hr; code E = Haemophilus influenzae DILL AMP R; unit assumed
Protocol: as §1, §2

[2] = test system: Staphylococcus aureus ATCC 6538P; conditions: Table 2, Assay B, cation-adjusted Mueller Hinton broth, 35° C., 16 to 20 hr; code A = Staphylococcus aureus ATCC 6538P; unit assumed
Protocol: as §1, §2

[3] = test system: Enterococcus faecalis PIU 1967; conditions: Table 2, Assay B, cation-adjusted Mueller Hinton broth, 35° C., 16 to 20 hr; code B = Enterococcus faecalis PIU 1967; unit assumed
Protocol: as §1, §2

[4] = test system: Streptococcus pneumoniae ATCC 6303; conditions: Table 2, Assay B, Mueller Hinton broth with 3% lysed horse blood, 20 to 24 hr; code F = Streptococcus pneumoniae ATCC 6303; unit assumed
Protocol: as §1, §2

Row | Antibacterial Activity (MIC's), D (Escherichia coli JUHL) [µg/mL] | Antibacterial Activity (MIC's), E [1] [µg/mL] | Antibacterial Activity (MIC's), A [2] [µg/mL] | Antibacterial Activity (MIC's), B [3] [µg/mL] | Antibacterial Activity (MIC's), F [4] [µg/mL] | Compound
1 | 1 | 0.25 | 0.015 | 0.25 | 1 | COc1c(-c2cc3c(s2)CCCC3)ccc2c(=O)c(C(=O)O)cn(C3CC3)c12 [Example 243, 1-cyclopropyl-8-methoxy-4-oxo-7-(4,5,6,7-tetrahydro-1-benzothien-2-yl)-1,4-dihydro-3-quinolinecarboxylic acid]
2 | 0.5 | 0.25 | 0.03 | 0.25 | 0.125 | CC1(C)CCc2cc(-c3cc4c(cc3F)c(=O)c(C(=O)O)cn4C3CC3)sc2C1O (centres unmarked) [Example 342, 1-cyclopropyl-6-fluoro-7-(7-hydroxy-6,6-dimethyl-4,5,6,7-tetrahydro-1-benzothien-2-yl)-4-oxo-1,4-dihydroquinoline-3-carboxylic acid]
3 | 1 | 0.25 | 0.125 | 1 | 0.125 | COc1c(-c2cc3c(s2)C(N)CN(S(C)(=O)=O)C3)ccc2c(=O)c(C(=O)O)cn(C3CC3)c12 (centres unmarked) [Example 230, 7-(7-amino-5-(methylsulfonyl)-4,5,6,7-tetrahydrothieno[3,2-c]pyridin-2-yl)-1-cyclopropyl-8-methoxy-4-oxo-1,4-dihydro-3-quinolinecarboxylic acid]
4 | 0.5 | 0.25 | 0.03 | 0.25 | 0.06 | COc1c(-c2cc3c(s2)C(N)CC(C)(C)C3)ccc2c(=O)c(C(=O)O)cn(C3CC3)c12.Cl (centres unmarked) [Example 268, 7-(7-amino-5,5-dimethyl-4,5,6,7-tetrahydro-1-benzothien-2-yl)-1-cyclopropyl-8-methoxy-4-oxo-1,4-dihydroquinoline-3-carboxylic acid hydrochloride]
5 | 0.05 | 0.06 | 0.015 | 0.125 | 0.25 | CON=C1CCCc2cc(-c3ccc4c(=O)c(C(=O)O)cn(C5CC5)c4c3OC)sc21 [Example 63, 1-cyclopropyl-8-methoxy-7-((7E/Z)-7-(methoxyimino)-4,5,6,7-tetrahydro-1-benzothien-2-yl)-4-oxo-1,4-dihydro-3-quinolinecarboxylic acid]
6 | 0.125 | 0.06 | 0.015 | 0.125 | 0.25 | O=C(O)c1cn(C2CC2)c2cc(-c3cc4c(s3)C(O)CCC4)ccc2c1=O (centres unmarked) [Example 280, 1-cyclopropyl-7-(7-hydroxy-4,5,6,7-tetrahydro-1-benzothien-2-yl)-4-oxo-1,4-dihydroquinoline-3-carboxylic acid]
7 | 0.25 | 0.125 | 0.06 | 0.5 | 0.125 | COc1c(-c2sc3c(c2C)C(N)CCC3)ccc2c(=O)c(C(=O)O)cn(C3CC3)c12.Cl (centres unmarked) [Example 232, 7-(4-amino-3-methyl-4,5,6,7-tetrahydro-1-benzothien-2-yl)-1-cyclopropyl-8-methoxy-4-oxo-1,4-dihydro-3-quinolinecarboxylic acid hydrochloride]
8 | 0.06 | 0.015 | – | 0.125 | 0.125 | COc1c(-c2cc3c(s2)CCCC3CN)ccc2c(=O)c(C(=O)O)cn(C3CC3)c12 (centres unmarked) [Example 130, 7-(4-(aminomethyl)-4,5,6,7-tetrahydro-1-benzothien-2-yl)-1-cyclopropyl-8-methoxy-4-oxo-1,4-dihydro-3-quinolinecarboxylic acid]

The next lines start with the compound.

Row | Compound | Antibacterial Activity (MIC's), D (Escherichia coli JUHL) [µg/mL] | Antibacterial Activity (MIC's), E [1] [µg/mL] | Antibacterial Activity (MIC's), A [2] [µg/mL] | Antibacterial Activity (MIC's), B [3] [µg/mL] | Antibacterial Activity (MIC's), F [4] [µg/mL]
9 | COc1c(-c2cc3c(s2)CCCC3(C)C)ccc2c(=O)c(C(=O)O)cn(C3CC3)c12 [Example 227, 1-cyclopropyl-7-(4,4-dimethyl-4,5,6,7-tetrahydro-1-benzothien-2-yl)-8-methoxy-4-oxo-1,4-dihydro-3-quinolinecarboxylic acid] | > 64 | 2 | 0.5 | 2 | 8
10 | COc1c(-c2cc3c(s2)C(N)C(C)CC3)ccc2c(=O)c(C(=O)O)cn(C3CC3)c12.Cl (centres unmarked) [Example 235, 7-(7-amino-6-methyl-4,5,6,7-tetrahydro-1-benzothien-2-yl)-1-cyclopropyl-8-methoxy-4-oxo-1,4-dihydro-3-quinolinecarboxylic acid hydrochloride] | 0.25 | 0.06 | 0.015 | 0.25 | 0.06
11 | CNC1CCCc2sc(-c3c(F)cc4c(=O)c(C(=O)O)cn(C5CC5)c4c3OC)cc21.Cl (centres unmarked) [Example 210, 1-cyclopropyl-6-fluoro-8-methoxy-7-(4-(methylamino)-4,5,6,7-tetrahydro-1-benzothien-2-yl)-4-oxo-1,4-dihydro-3-quinolinecarboxylic acid hydrochloride] | 0.25 | 0.03 | 0.06 | 0.125 | 0.06
12 | O=C(O)c1cn(C2CC2)c2c(Cl)c(-c3cc4c(s3)C(O)CCC4)ccc2c1=O (centres unmarked) [Example 315, 8-chloro-1-cyclopropyl-7-(7-hydroxy-4,5,6,7-tetrahydro-1-benzothien-2-yl)-4-oxo-1,4-dihydroquinoline-3-carboxylic acid] | 0.125 | 0.008 | 0.008 | 0.06 | 0.125
13 | COc1c(-c2cc3c(s2)CCCC3=NNC(N)=S)ccc2c(=O)c(C(=O)O)cn(C3CC3)c12 [Example 84, 7-((4E/Z)-4-[(aminocarbothioyl)hydrazono)-4,5,6,7-tetrahydro-1-benzothien-2-yl)-1-cyclopropyl-8-methoxy-4-oxo-1,4-dihydro-3-quinolinecarboxylic acid] | 1 | 0.125 | 0.06 | 0.25 | 0.25
14 | CNC1CCCc2sc(-c3ccc4c(=O)c(C(=O)O)cn(C5CC5)c4c3Cl)cc21.Cl (centres unmarked) [Example 361, 8-chloro-1-cyclopropyl-7-(4-(methylamino)-4,5,6,7-tetrahydro-1-benzothien-2-yl)-4-oxo-1,4-dihydroquinoline-3-carboxylic acid hydrochloride] | 0.06 | 0.015 | 0.015 | 0.06 | 0.03
15 | COc1c(-c2cc3c(s2)CCC(=NOCc2ccccc2)C3)ccc2c(=O)c(C(=O)O)cn(C3CC3)c12 [Example 79, 7-((5E/Z)-5-((benzyloxy)imino)-4,5,6,7-tetrahydro-1-benzothien-2-yl)-1-cyclopropyl-8-methoxy-4-oxo-1,4-dihydro-3-quinolinecarboxylic acid] | 4 | 1 | 0.125 | 1 | 0.5
16 | CC1(C)CCc2cc(-c3ccc4c(=O)c(C(=O)O)cn(C5CC5)c4c3Cl)sc2C1N.Cl (centres unmarked) [Example 347, 7-(7-amino-6,6-dimethyl-4,5,6,7-tetrahydro-1-benzothien-2-yl)-8-chloro-1-cyclopropyl-4-oxo-1,4-dihydroquinoline-3-carboxylic acid hydrochloride] | 0.25 | 0.06 | 0.03 | 0.25 | 0.125
17 | COc1c(-c2cc3c(s2)CCCC3=NOCc2ccncc2)ccc2c(=O)c(C(=O)O)cn(C3CC3)c12 [Example 131, 1-cyclopropyl-8-methoxy-4-oxo-7-((4E/Z)-4-((4-pyridinylmethoxy)imino)-4,5,6,7-tetrahydro-1-benzothien-2-yl)-1,4-dihydro-3-quinolinecarboxylic acid] | 1 | 0.125 | – | 0.5 | 0.5
